Experimental data published in patent US10597388B2, “Pyridazinone herbicides” (FMC CORPORATION, priority 2014, dated 2020).

Assays:
Experiment in all cases: Test C greenhouse herbicide test, pre- and postemergence
Format in all cases: in vivo
[1] = tested on: barnyardgrass (Echinochloa crus-galli)
In short: (§1)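 Seeds sown in loam–sand blend treated preemergence; plants in peat-based medium sprayed postemergence at 2–18 cm (1- to 4-leaf stage); chemicals in non-phytotoxic solvent with surfactant. Greenhouse 13–15 d, then visual rating versus controls on 0–100 scale (0 no effect, 100 complete control).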

[2] = tested on: blackgrass (Alopecurus myosuroides)
In short: as §1

corn (Zea mays) = tested on: corn (Zea mays)
In short: as §1

[3] = tested on: crabgrass, large (large crabgrass, Digitaria sanguinalis)
In short: as §1

[4] = tested on: foxtail, giant (giant foxtail, Setaria faberii)
In short: as §1

[5] = tested on: galium (catchweed bedstraw, Galium aparine)
In short: as §1

[6] = tested on: johnsongrass (Sorghum halepense)
In short: as §1

[7] = tested on: lambsquarters (Chenopodium album)
In short: as §1

[8] = tested on: morningglory (Ipomoea coccinea)
In short: as §1

[9] = tested on: nutsedge, yellow (yellow nutsedge, Cyperus esculentus)
In short: as §1

[10] = tested on: oilseed rape (Brassica napus)
In short: as §1

[11] = tested on: pigweed (Amaranthus retroflexus)
In short: as §1

[12] = tested on: ragweed (common ragweed, Ambrosia elatior)
In short: as §1

[13] = tested on: ryegrass, Italian (Italian ryegrass, Lolium multiflorum)
In short: as §1

[14] = tested on: velvetleaf (Abutilon theophrasti)
In short: as §1

[15] = tested on: waterhemp (common waterhemp, Amaranthus rudis)
In short: as §1

[16] = Postemergence, 31 g ai/ha, 0 to 100 scale (0 no effect, 100 complete control)
[17] = Postemergence, 125 g ai/ha, scale 0 to 100, 0 is no effect, 100 is complete control
[18] = Postemergence, 250 g ai/ha, scale 0 to 100, 0 no effect, 100 complete control, 13 to 15 d
[19] = postemergence, 62 g ai/ha, scale 0 to 100, 0 no effect, 100 complete control

Cc1cc(C)c2ccccc2c1-c1c(O)cnn(C)c1=O [Compound 51]
95: Plant response rating, Galium [5, 18]
85: Galium plant response rating [5, 16] | Plant response rating, Nutsedge, Yellow [9, 17] | Plant response rating, Pigweed [11, 18]
30: Waterhemp plant response rating [15, 16]
70: Nutsedge, Yellow plant response rating [9, 19] | Plant response rating, Pigweed [11, 17] | Plant response rating, Ryegrass, Italian [13, 18] | Plant response rating, Velvetleaf [14, 18]
75: Plant response rating, Morningglory [8, 17] | Plant response rating, Morningglory [8, 18]
20: Plant response rating, Barnyardgrass [1, 18] | Velvetleaf plant response rating [14, 19]
10: Plant response rating, Barnyardgrass [1, 17] | Plant response rating, Blackgrass [2, 18] | Plant response rating, Crabgrass, Large [3, 17] | Plant response rating, Crabgrass, Large [3, 18] | Ragweed plant response rating [12, 16]
25: Plant response rating, Ragweed [12, 18]
50: Lambsquarters plant response rating [7, 19] | Ryegrass, Italian plant response rating [13, 19] | Plant response rating, Velvetleaf [14, 17] | Waterhemp plant response rating [15, 19]
55: Morningglory plant response rating [8, 19]
15: Plant response rating, Foxtail, Giant [4, 17]
90: Plant response rating, Galium [5, 17] | Galium plant response rating [5, 19] | Plant response rating, Nutsedge, Yellow [9, 18]
35: Plant response rating, Foxtail, Giant [4, 18] | Nutsedge, Yellow plant response rating [9, 16] | Ryegrass, Italian plant response rating [13, 16]
80: Plant response rating, Waterhemp [15, 17]
5: Barnyardgrass plant response rating [1, 16] | Barnyardgrass plant response rating [1, 19] | Crabgrass, Large plant response rating [3, 19] | Foxtail, Giant plant response rating [4, 16] | Foxtail, Giant plant response rating [4, 19] | Lambsquarters plant response rating [7, 16] | Morningglory plant response rating [8, 16] | Plant response rating, Oilseed Rape [10, 17] | Plant response rating, Oilseed Rape [10, 18] | Oilseed Rape plant response rating [10, 19] | Plant response rating, Ragweed [12, 17] | Ragweed plant response rating [12, 19] | Velvetleaf plant response rating [14, 16]
65: Plant response rating, Lambsquarters [7, 17] | Pigweed plant response rating [11, 19]
60: Pigweed plant response rating [11, 16] | Plant response rating, Ryegrass, Italian [13, 17]
0: Blackgrass plant response rating [2, 16] | Plant response rating, Blackgrass [2, 17] | Blackgrass plant response rating [2, 19] | Corn plant response rating (corn (Zea mays); [16]) | Plant response rating, Corn (corn (Zea mays); [17]) | Plant response rating, Corn (corn (Zea mays); [18]) | Corn plant response rating (corn (Zea mays); [19]) | Crabgrass, Large plant response rating [3, 16] | Johnsongrass plant response rating [6, 16] | Plant response rating, Johnsongrass [6, 17] | Plant response rating, Johnsongrass [6, 18] | Johnsongrass plant response rating [6, 19] | Oilseed Rape plant response rating [10, 16]
